According to patent publication US11124510B2, “Alkyl chain modified imidazoquinoline TLR7/8 agonist compounds and uses thereof” (Dynavax Technologies Corporation, priority 2017, dated 2021):

Test system: CT26 colon carcinoma
Assay: Anti-tumor efficacy of squalene oil-in-water nanoemulsion with or without AH-1 peptide in two flank CT26 colon carcinoma-bearing mice
Assay type: in vivo
Protocol: The effect of repeated weekly doses of intratumorally-delivered pharmaceutical compositions comprised of Compound No. 63-10 formulated in a squalene-based oil-in-water nanoemulsion that was co-formulated with the CT-26 tumor associated AH-1 […] peptide (immunodominant epitope sequence from the endogenous retroviral gene product gp70; see e.g., Rice J, Buchan S and Stevenson F 2002 J Immunol 169:3908-3913) on injected and distal tumor growth inhibition was assessed in CT26 colon carcinoma-bearing Balb/c mice bearing tumors in 2 flanks. All in vivo procedures were conducted in accordance with approved IACUC protocols. The animals were housed in a facility that is accredited by the AALAC. Wild-type female Balb/c mice (15-20 g) were obtained from Envigo (Hayward, Calif.) and acclimated for 2-3 days prior to use.
Pharmaceutical compositions comprised of squalene-based oil-in-water nanoemulsions were made generally as described in Example B2-2. […] Right (injected) and left (distal) tumor volumes were then measured twice weekly from days 8 through day 30 with calipers, with tumor volumes calculated using the formula: length, multiplied by width, multiplied by width, divided by 2.

## CCCCCCCCCCCCCC(=O)NCc1ccc(Cn2c(CCCC)nc3c(N)nc4ccccc4c32)cc1 [Compound No. 63-10, N-(4-((4-amino-2-butyl-1H-imidazo[4,5-c]quinolin-1-yl)methyl)benzyl)tetradecanamide]
Day 23, 50 ng intratumoral days 8, 12, 16, 20
  tumor growth inhibition in the distal (left) tumor compared to the nanoemulsion vehicle control: not significantly different from the vehicle control
Day 27, 50 ng intratumoral days 8, 12, 16, 20
  tumor growth inhibition in the injected (right) tumor compared to the nanoemulsion vehicle control: not significantly different from the vehicle control
